How the values were obtained:
[1] = target: T1, CDK2 (cyclin A) (Homo sapiens, UniProt P24941); assay: Z'-LYTE kinase assay; type: biochemical
T1 construct: purchased Invitrogen Life Technologies (assay service)
Outline: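 FRET-based Z′-LYTE read-out using 1.22–10.3 ng CDK2/cyclin A with Ser/Thr 12 peptide (2 μM in the 2× mix) and ATP (31 μM as the 4× solution), in HEPES pH 7.5, MgCl2, EGTA and BRIJ-35, for 60 min at room temperature. After 1 h of development, the 445/520 nm emission was read, and percent inhibition was fitted to a four-parameter logistic curve for IC50.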

[2] = target: T2, FMS kinase (Homo sapiens, UniProt P07333); assay: LanthaScreen Eu Kinase Binding Assay (ATP, fluorescent-PolyGT substrate); type: biochemical
T2 construct: purchased Invitrogen (Life Technologies)
Outline: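 Kinase (1.25 nM) preincubated 10 min with 3-fold compound dilutions, then ATP 10 μM and fluorescent PolyGT substrate 200 nM added for 1 h in the dark at room temperature. Stopped with Tb-antibody (4 nM) and EDTA 20 mM; TR-FRET at 340 nm excitation, 495/520 nm emission; IC50 from four-parameter fit.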

[3] = target: T3, PI3Kδ kinase (Homo sapiens, UniProt O00329); assay: PI3Kδ kinase assay (ADP-Glo, Reaction Biology); type: biochemical
T3 construct: purchased Reaction Biology Corporation (assay service)
Outline: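 Kinase in Tris-HCl 40 mM pH 7.5, MgCl2 20 mM, orthovanadate 3 mM, DTT 2 mM, 0.05% CHAPS, 1% DMSO, preincubated 10 min at room temperature with compound (about 0.5 nM–100 μM). ATP started a 30-min reaction at 30 °C. ADP-Glo luminescence converted to μM ADP via standard curve; IC50 from nonlinear regression.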

[4] = tested on: DU4475 breast carcinoma cells; assay: Cancer cell proliferation assay, single agent (cell viability); type: cell-based; conditions: Homo sapiens, DU-4475; Table 4; Rb negative; treatment 144 Hr with medium change at 72 Hr; Cell Titer-Glo or resazurin
Outline: (§1)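 Cells seeded day 1, then exposed on day 2 to 7–9 compound concentrations (e.g. 1.1 nM–10 μM); BT-549 for 24 h, MCF-7 and DU4475 for 144 h with medium change at 72 h. Viability by CellTiter-Glo or resazurin; IC50 from variable-slope sigmoidal fit.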

[5] = tested on: MCF-7 breast adenocarcinoma cells; assay: as above; type: cell-based; conditions: Homo sapiens
Outline: as §1

[6] = tested on: MCF-7-PR (palbociclib-resistant MCF-7) cells; assay: Cell viability in palbociclib-resistant cell line; type: cell-based; conditions: Homo sapiens, MCF7; Table 5; palbociclib-resistant cell line maintained at about 850 nM palbociclib
Experimental: Cells were treated with test compounds at 7 to 9 concentrations within a desired concentration range (e.g. 1.1 nM-10 μM) on day 2 by series diluting the test compound stock solution (10 mM in DMSO) with culture medium. Treatment duration was 24 Hr for BT-549 cells and 144 Hr (with a medium change at 72 Hr) for MCF-7 and DU4475 cells. Cell viability was assessed by Cell Titer-Glo® as recommended by Promega (Cat. No.: G7572), or by resazurin assay (Sigma Aldrich, Cat. No.: R7017) post treatment.
Cell viability data were plotted using GraphPad Prism (GraphPad Software, Inc., San Diego, Calif.). In addition, a nonlinear regression model with a sigmoidal dose response and variable slope within GraphPad Prism was used to calculate the IC50 value of individual test compounds.
The effects of test compounds in a palbociclib-resistant cell line and a parental, non-resistant cell line were compared. The palbociclib-resistant cell line (“MCF-7-PR”) was derived from the parental, non-resistant cell line (MCF-7 breast adenocarcinoma cells) by culture of cells over a period of three months in increasing concentrations of palbociclib, starting from about 350 nM and ending at about 850 nM, the final concentration at which they were then maintained in culture. The MCF-7-PR cells were checked using a cell viability assay to confirm that they had at least 5-fold resistance to palbociclib compared to parental MCF-7 cells, as measured by an increase in the cell viability IC50 values. Assessment of cell viability following treatment with palbociclib or test compounds was performed according to the method described above for MCF-7 cells.

[7] = MCF7, Table 4, Rb positive, treatment 144 Hr with medium change at 72 Hr, Cell Titer-Glo or resazurin
[8] = MCF7, Table 5, parental, non-resistant cell line compared with MCF-7-PR

T2 sequence (P07333 20-972): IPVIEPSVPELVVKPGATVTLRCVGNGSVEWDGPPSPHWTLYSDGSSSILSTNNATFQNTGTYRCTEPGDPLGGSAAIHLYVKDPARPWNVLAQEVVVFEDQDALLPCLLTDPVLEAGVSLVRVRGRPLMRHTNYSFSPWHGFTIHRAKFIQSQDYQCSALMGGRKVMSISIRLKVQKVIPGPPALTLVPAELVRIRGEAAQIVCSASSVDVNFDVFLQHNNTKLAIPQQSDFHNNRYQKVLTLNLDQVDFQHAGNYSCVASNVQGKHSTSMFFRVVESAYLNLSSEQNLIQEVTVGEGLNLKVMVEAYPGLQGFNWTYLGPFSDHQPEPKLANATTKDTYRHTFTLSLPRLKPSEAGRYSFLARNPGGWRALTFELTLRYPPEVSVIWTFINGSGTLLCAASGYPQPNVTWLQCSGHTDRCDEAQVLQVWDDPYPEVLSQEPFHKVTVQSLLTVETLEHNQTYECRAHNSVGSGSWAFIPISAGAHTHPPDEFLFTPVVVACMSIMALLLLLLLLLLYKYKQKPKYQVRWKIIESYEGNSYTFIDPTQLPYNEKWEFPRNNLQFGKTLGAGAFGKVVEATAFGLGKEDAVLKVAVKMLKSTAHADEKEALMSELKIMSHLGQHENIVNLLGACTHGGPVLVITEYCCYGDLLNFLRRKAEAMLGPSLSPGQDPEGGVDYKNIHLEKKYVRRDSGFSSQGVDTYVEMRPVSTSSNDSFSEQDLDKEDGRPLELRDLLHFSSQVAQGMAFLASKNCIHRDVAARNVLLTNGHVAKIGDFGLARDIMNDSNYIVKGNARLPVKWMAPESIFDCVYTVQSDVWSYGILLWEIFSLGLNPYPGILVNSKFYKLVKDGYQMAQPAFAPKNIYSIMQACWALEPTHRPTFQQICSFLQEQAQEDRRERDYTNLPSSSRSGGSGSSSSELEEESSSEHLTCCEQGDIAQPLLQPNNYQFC
T3 sequence (O00329 whole entry): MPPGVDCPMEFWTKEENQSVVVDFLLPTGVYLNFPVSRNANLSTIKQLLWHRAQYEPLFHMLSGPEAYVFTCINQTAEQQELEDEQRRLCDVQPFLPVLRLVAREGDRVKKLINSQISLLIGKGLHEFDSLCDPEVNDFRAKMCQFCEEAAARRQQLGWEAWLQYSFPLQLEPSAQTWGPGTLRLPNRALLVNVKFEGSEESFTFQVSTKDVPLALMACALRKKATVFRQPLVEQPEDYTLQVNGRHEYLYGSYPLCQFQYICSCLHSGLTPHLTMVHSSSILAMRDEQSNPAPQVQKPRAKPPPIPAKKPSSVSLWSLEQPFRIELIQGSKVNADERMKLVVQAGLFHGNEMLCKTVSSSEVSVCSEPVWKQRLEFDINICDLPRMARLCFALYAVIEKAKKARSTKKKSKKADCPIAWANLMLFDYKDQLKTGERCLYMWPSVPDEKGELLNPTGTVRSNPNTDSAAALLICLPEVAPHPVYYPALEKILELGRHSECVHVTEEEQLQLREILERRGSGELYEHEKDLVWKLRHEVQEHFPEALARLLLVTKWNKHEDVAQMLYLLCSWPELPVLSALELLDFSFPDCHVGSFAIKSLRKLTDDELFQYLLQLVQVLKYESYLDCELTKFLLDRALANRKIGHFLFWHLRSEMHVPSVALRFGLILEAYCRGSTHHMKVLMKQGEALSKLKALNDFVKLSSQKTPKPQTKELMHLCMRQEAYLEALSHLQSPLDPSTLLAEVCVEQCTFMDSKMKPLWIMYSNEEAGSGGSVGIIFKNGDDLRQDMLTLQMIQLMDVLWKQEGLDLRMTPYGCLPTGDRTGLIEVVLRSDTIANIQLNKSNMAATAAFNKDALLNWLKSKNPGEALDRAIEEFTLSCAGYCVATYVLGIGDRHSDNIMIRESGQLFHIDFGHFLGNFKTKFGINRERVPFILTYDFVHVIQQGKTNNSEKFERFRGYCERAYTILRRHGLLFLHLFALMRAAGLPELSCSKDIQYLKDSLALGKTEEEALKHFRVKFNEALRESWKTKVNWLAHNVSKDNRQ
T3 sequence (P27986 whole entry partner): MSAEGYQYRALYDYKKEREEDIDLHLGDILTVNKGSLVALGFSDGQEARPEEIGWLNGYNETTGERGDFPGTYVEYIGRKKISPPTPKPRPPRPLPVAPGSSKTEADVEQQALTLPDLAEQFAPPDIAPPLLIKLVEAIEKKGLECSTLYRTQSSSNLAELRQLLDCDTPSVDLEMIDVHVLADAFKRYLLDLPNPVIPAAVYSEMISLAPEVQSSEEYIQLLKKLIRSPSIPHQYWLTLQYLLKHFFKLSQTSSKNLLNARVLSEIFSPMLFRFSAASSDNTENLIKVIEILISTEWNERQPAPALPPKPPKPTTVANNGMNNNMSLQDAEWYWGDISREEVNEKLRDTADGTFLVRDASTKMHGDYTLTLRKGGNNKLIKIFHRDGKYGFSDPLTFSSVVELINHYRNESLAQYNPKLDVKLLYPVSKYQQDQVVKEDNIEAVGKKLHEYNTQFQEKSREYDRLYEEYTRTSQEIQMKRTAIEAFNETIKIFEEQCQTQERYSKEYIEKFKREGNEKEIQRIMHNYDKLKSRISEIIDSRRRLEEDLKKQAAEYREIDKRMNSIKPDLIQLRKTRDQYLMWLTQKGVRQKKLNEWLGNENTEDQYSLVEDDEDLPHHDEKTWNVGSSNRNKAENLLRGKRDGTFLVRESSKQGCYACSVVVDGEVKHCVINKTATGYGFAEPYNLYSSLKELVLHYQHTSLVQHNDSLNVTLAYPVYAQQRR

Structure (SMILES) | IC50 [1] | IC50 [2] | IC50 [3] | IC50 [4] | IC50 [5, 7] | IC50 [6] | IC50 [5, 8]
CS(=O)(=O)N1CCC(Nc2ncc3cc(C#N)c(=O)n(C4CCCC4)c3n2)CC1 [Compound No. 93, 8-cyclopentyl-2-((1-(methylsulfonyl)piperidin-4-yl)amino)-7-oxo-7,8-dihydropyrido[2,3-d]pyrimidine-6-carbonitrile] | 2.5 nM |  | 12100 nM | 793 nM | 2000 nM | 911 nM | 558 nM
N#Cc1cc2cnc(Nc3ccc(N4CCNCC4)c(F)c3)nc2n(C2CCCC2)c1=O [Compound No. 13, 8-cyclopentyl-2-((3-fluoro-4-(piperazin-1-yl)phenyl)amino)-7-oxo-7,8-dihydropyrido[2,3-d]pyrimidine-6-carbonitrile] |  | < 1 nM | 561 nM |  | 158 nM | 481 nM | 119 nM
N#Cc1cc2cnc(Nc3ccc4c(c3)CNCC4)nc2n(C2CCCC2)c1=O [Compound No. 29, 8-cyclopentyl-7-oxo-2-((1,2,3,4-tetrahydroisoquinolin-7-yl)amino)-7,8-dihydropyrido[2,3-d]pyrimidine-6-carbonitrile] | 42 nM | 2.5 nM | 552 nM | 1280 nM | 240 nM |  | 
CS(=O)(=O)N1CCC(Nc2ncc3cc(C#N)c(=O)n(C4CC5CC5C4)c3n2)CC1 (centres unmarked) [Compound No. 341, 8-(bicyclo[3.1.0]hexan-3-yl)-2-((1-(methylsulfonyl)piperidin-4-yl)amino)-7-oxo-7,8-dihydropyrido[2,3-d]pyrimidine-6-carbonitrile] | 7 nM | 166 nM | > 50000 nM | 940 nM | 835 nM | 690 nM | 487 nM
N#Cc1cc2cnc(Nc3ccc4c(c3)CCNC4)nc2n(C2CCCC2)c1=O [Compound No. 31, 8-cyclopentyl-7-oxo-2-((1,2,3,4-tetrahydroisoquinolin-6-yl)amino)-7,8-dihydropyrido[2,3-d]pyrimidine-6-carbonitrile] | 32 nM | 1 nM | 128 nM | 525 nM | 130 nM | 248 nM | 157 nM

Second part, led by results:

IC50 [1] | IC50 [2] | IC50 [3] | IC50 [4] | IC50 [5, 7] | IC50 [6] | Structure (SMILES) | IC50 [5, 8]
41 nM | < 1 nM | 421 nM | 485 nM | 415 nM | 361 nM | N#Cc1cc2cnc(Nc3ccc4c(c3)CCNC4)nc2n(C2CC3CC3C2)c1=O (centres unmarked) [Compound No. 342, 8-(bicyclo[3.1.0]hexan-3-yl)-7-oxo-2-((1,2,3,4-tetrahydroisoquinolin-6-yl)amino)-7,8-dihydropyrido[2,3-d]pyrimidine-6-carbonitrile] | 192 nM
30 nM | 674 nM | > 50000 nM | 3690 nM | 3140 nM | 6230 nM | CS(=O)(=O)N1CCC(Nc2ncc3cc(C#N)c(=O)n(C4CCC(F)(F)C4)c3n2)CC1 (racemic) [Compound No. 345, 8-(3,3-difluorocyclopentyl)-2-((1-(methylsulfonyl)piperidin-4-yl)amino)-7-oxo-7,8-dihydropyrido[2,3-d]pyrimidine-6-carbonitrile] | 3970 nM

Source: US20220273659A1, “HETEROCYCLIC COMPOUNDS AS KINASE INHIBITORS” (NUVATION BIO INC., priority 2019, published 2022)
